{"source": "patent US6915969B2", "about": "“Method and installation for making flour from ozone-treated grains” (Green Technologies Sarl, priority 1999, dated 2005)", "assay": "reduction of pesticide contaminants", "parameters": "species or system wheat", "settings": "after treatment by the method of the invention (ozone)", "text": "A reduction of about 80% in the content of Chlorpyriphosmethyl (a pesticide generally used in the case of wheat) was thus observed, thus leading certainly to a product which is perfectly acceptable from the point of view of the current food standards.", "data": [{"smiles": "COP(=S)(OC)Oc1nc(Cl)c(Cl)cc1Cl", "note": "[Chlorpyriphosmethyl]", "values": [{"measurement": "reduction in the content of Chlorpyriphosmethyl", "result": "about 80%"}]}]}
